Test results published in patent publication US11993586B2, “Crystalline forms of potassium channel modulators” (Novartis AG, priority 2018, dated 2024).
Each block holds one compound with its values, some of them ahead of it.

Assay: Solid form stability (conversion on heating or storage, by 1H solution NMR and XRPD)
Type: physicochemical
Protocol: Form C was obtained by slow evaporation from an IPA solution at RT. […] (onset temperatures) and 93.3° C. (peak temperature) (FIG. 5).
Form D was obtained via slow evaporation from EtOH solution at RT. […] (onset temperatures) and an exotherm at 88.5° C. (peak temperature) (FIG. 8).
(onset temperatures) (FIG. 9).
Form F was obtained by evaporation of DCM solution (100 mg scale) at RT for 1 day. […] (onset temperatures) and an exotherm at 86.9° C. (peak temperature) (FIG. 11).

Solid form conversion (heated to 120° C.): converted to anhydrate Form B
Structure (SMILES): Cc1ccn(-c2nc(NC3CCC(F)(F)CC3)cc(N3CCOCC3)n2)n1 [Form F]

Solid form conversion (heated to 110° C.): converted to anhydrate Form B
Solid form conversion (stored at RT for 8 days): converted to anhydrate Form B
Structure (SMILES): Cc1ccn(-c2nc(NC3CCC(F)(F)CC3)cc(N3CCOCC3)n2)n1 [Form C]

Solid form conversion (heated to 130° C.): converted to anhydrate Form B
Structure (SMILES): Cc1ccn(-c2nc(NC3CCC(F)(F)CC3)cc(N3CCOCC3)n2)n1 [Form E]

Solid form conversion (stored at RT for a month): converted to anhydrate Form B
Structure (SMILES): Cc1ccn(-c2nc(NC3CCC(F)(F)CC3)cc(N3CCOCC3)n2)n1 [Form D]
